Measured values published in patent US12637424B2, “Pharmaceutical salt of an arylpyrrole derivative” (SENTINEL ONCOLOGY LIMITED, priority 2020, dated 2026).

Legend:
Test in all cases: DiscoverX KinomeScreen competition binding assay (kinase selectivity panel)
[1] = target: T1, panel of ninety-seven kinases (Homo sapiens, UniProt P30530); details: AXL; screened at 3000 nM
T1 construct: purchased DiscoverX; host or cells: E. coli (BL21-derived, T7 phage display) or HEK-293
Protocol: (§1) This has been investigated by testing atropisomer A-2 for off-target activity against a panel of ninety-seven kinases distributed across the kinome at a concentration of 3 μM using the DiscoverX KinomeScreen assay. The DiscoverX KinomeScreen assay is a site-directed competition binding assay which measures the binding affinity of a compound to a kinase, by use of a solid supported control compound which can bind or capture the kinases in solution. In the absence of a kinase-inhibitor test compound, all of the kinase will bind to the solid support. If a kinase-inhibitor test compound is added to the assay mix, the amount of kinase binding to the solid support will be reduced, the extent of reduction being dependent on the potency of the test compound as a kinase inhibitor. […] For most assays, kinase-tagged T7 phage strains were grown in parallel in 24-well blocks in an E. coli host derived from the BL21 strain. E. coli were grown to log-phase and infected with T7 phage from a frozen stock (multiplicity of infection=0.4) and incubated with shaking at 32° C. until lysis (90-150 minutes). The lysates were centrifuged (6,000×g) and filtered (0.2 μm) to remove cell debris. The remaining kinases were produced in HEK-293 cells and subsequently tagged with DNA for qPCR detection. Streptavidin-coated magnetic beads were treated with biotinylated small molecule ligands for 30 minutes at room temperature to generate affinity resins for kinase assays. The liganded beads were blocked with excess biotin and washed with blocking buffer (SeaBlock (Pierce), 1% BSA, 0.05% Tween 20, 1 mM DTT) to remove unbound ligand and to reduce non-specific phage binding. […] Test compounds were prepared as 40× stocks in 100% DMSO and directly diluted into the assay. All reactions were performed in polypropylene 384-well plates in a final volume of 0.02 ml. […] The beads were then re-suspended in elution buffer (1×PBS, 0.05% Tween 20, 0.5 μM non-biotinylated affinity ligand) and incubated at room temperature with shaking for 30 minutes. The kinase concentration in the eluates was measured by qPCR. Compounds that bind the kinase active site and directly (sterically) or indirectly (allosterically) prevent kinase binding to the immobilized ligand, will reduce the amount of kinase captured on the solid support. […] The strength of binding of the test molecule to the kinase can be expressed as the percent control (% Ctrl) The compound(s) were screened at 3000 nM concentration, and results for primary screen binding interactions are reported as ‘% Ctrl’, where lower numbers indicate stronger hits in the matrix on the following page(s). [formula] • negative control=DMSO (100% Ctrl) • positive control=control compound (0% Ctrl)

[2] = target: T2, panel of ninety-seven kinases (Homo sapiens, UniProt P51812); details: RPS6KA3; screened at 3000 nM
T2 construct: purchased DiscoverX; host or cells: E. coli (BL21-derived, T7 phage display) or HEK-293
T2 sequence (P51812 whole entry): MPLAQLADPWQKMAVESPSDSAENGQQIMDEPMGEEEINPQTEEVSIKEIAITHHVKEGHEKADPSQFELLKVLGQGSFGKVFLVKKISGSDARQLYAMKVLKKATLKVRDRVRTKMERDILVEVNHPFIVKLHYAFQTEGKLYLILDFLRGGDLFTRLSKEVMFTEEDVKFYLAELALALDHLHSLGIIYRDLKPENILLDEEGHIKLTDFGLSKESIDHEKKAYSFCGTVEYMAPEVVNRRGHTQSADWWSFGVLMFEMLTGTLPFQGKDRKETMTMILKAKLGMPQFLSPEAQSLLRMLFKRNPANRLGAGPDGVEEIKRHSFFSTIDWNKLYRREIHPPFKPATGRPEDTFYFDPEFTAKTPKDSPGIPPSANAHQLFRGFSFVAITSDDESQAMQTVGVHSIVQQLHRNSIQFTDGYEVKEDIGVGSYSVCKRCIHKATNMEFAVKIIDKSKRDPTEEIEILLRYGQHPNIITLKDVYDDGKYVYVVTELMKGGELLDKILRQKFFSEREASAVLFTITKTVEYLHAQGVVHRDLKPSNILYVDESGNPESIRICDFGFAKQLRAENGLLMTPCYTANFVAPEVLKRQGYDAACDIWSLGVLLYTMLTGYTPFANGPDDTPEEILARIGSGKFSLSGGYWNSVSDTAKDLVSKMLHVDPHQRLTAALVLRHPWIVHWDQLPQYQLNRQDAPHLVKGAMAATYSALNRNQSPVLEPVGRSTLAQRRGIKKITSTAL
Protocol: as §1

[3] = target: T3, panel of ninety-seven kinases (Homo sapiens, UniProt O14757); details: CHEK1; screened at 3000 nM
T3 construct: purchased DiscoverX; host or cells: E. coli (BL21-derived, T7 phage display) or HEK-293
Protocol: as §1

[4] = target: T4, panel of ninety-seven kinases (Homo sapiens, UniProt P09619); details: PDGFRB; screened at 3000 nM
T4 construct: purchased DiscoverX; host or cells: E. coli (BL21-derived, T7 phage display) or HEK-293
Protocol: as §1

[5] = target: T5, panel of ninety-seven kinases (Homo sapiens, UniProt Q02763); details: TEK; screened at 3000 nM
T5 construct: purchased DiscoverX; host or cells: E. coli (BL21-derived, T7 phage display) or HEK-293
Protocol: as §1

[6] = target: T6, panel of ninety-seven kinases (Homo sapiens, UniProt P50750); details: CDK9; screened at 3000 nM
T6 construct: purchased DiscoverX; host or cells: E. coli (BL21-derived, T7 phage display) or HEK-293
T6 sequence (P50750 whole entry): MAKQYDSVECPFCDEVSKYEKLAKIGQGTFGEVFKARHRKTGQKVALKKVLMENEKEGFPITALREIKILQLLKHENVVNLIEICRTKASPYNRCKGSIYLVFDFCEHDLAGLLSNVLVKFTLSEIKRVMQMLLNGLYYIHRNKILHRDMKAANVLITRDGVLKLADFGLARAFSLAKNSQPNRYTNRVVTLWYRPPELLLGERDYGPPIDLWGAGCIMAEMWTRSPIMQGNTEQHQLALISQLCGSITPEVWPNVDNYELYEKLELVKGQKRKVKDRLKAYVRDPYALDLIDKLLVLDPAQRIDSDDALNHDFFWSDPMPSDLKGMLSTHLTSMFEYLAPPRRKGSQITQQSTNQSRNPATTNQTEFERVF
Protocol: as §1

[7] = target: T7, panel of ninety-seven kinases (Homo sapiens, UniProt P29597); details: TYK2; screened at 3000 nM
T7 construct: purchased DiscoverX; host or cells: E. coli (BL21-derived, T7 phage display) or HEK-293
Protocol: as §1

[8] = target: T8, panel of ninety-seven kinases (Homo sapiens, UniProt Q8NI60); details: CABC1; screened at 3000 nM
T8 construct: purchased DiscoverX; host or cells: E. coli (BL21-derived, T7 phage display) or HEK-293
Protocol: as §1

[9] = target: T9, panel of ninety-seven kinases (Homo sapiens, UniProt O14965); details: AURKA; screened at 3000 nM
T9 construct: purchased DiscoverX; host or cells: E. coli (BL21-derived, T7 phage display) or HEK-293
Protocol: as §1

[10] = target: T10, panel of ninety-seven kinases (Homo sapiens, UniProt Q9P1W9); details: PIM2; screened at 3000 nM
T10 construct: purchased DiscoverX; host or cells: E. coli (BL21-derived, T7 phage display) or HEK-293
T10 sequence (Q9P1W9 whole entry): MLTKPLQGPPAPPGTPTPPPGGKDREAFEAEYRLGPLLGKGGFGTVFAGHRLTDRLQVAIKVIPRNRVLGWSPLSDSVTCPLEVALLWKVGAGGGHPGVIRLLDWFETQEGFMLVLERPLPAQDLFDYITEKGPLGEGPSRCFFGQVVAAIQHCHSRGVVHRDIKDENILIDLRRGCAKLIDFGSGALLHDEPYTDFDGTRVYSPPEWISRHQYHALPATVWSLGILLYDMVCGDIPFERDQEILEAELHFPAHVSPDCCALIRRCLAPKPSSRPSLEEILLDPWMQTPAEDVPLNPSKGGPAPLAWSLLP
Protocol: as §1

[11] = target: T11, panel of ninety-seven kinases (Homo sapiens, UniProt P53779); details: MAPK10; screened at 3000 nM
T11 construct: purchased DiscoverX; host or cells: E. coli (BL21-derived, T7 phage display) or HEK-293
T11 sequence (P53779 whole entry): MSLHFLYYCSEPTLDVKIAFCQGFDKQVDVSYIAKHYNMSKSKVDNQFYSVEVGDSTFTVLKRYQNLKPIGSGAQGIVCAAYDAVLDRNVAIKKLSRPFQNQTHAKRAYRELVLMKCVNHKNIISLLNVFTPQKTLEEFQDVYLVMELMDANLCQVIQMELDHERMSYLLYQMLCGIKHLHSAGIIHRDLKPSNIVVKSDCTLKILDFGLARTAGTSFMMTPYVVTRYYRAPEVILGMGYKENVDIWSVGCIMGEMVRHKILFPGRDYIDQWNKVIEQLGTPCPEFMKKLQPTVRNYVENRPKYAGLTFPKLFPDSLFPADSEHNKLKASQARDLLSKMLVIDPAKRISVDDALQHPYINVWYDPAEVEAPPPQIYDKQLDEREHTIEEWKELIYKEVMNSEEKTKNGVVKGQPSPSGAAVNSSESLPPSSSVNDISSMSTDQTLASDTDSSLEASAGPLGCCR
Protocol: as §1

[12] = target: T12, panel of ninety-seven kinases (Homo sapiens, UniProt P36896); details: ACVR1B; screened at 3000 nM
T12 construct: purchased DiscoverX; host or cells: E. coli (BL21-derived, T7 phage display) or HEK-293
Protocol: as §1

[13] = target: T13, panel of ninety-seven kinases (Homo sapiens, UniProt O75116); details: ROCK2; screened at 3000 nM
T13 construct: purchased DiscoverX; host or cells: E. coli (BL21-derived, T7 phage display) or HEK-293
Protocol: as §1

[14] = target: T14, panel of ninety-seven kinases (Homo sapiens, UniProt P17612); details: PRKACA; screened at 3000 nM
T14 construct: purchased DiscoverX; host or cells: E. coli (BL21-derived, T7 phage display) or HEK-293
Protocol: as §1

[15] = target: T15, panel of ninety-seven kinases (Homo sapiens, UniProt P45984); details: MAPK9; screened at 3000 nM
T15 construct: purchased DiscoverX; host or cells: E. coli (BL21-derived, T7 phage display) or HEK-293
Protocol: as §1

[16] = target: T16, panel of ninety-seven kinases (Homo sapiens, UniProt P12931); details: SRC; screened at 3000 nM
T16 construct: purchased DiscoverX; host or cells: E. coli (BL21-derived, T7 phage display) or HEK-293
Protocol: as §1

[17] = target: T17, panel of ninety-seven kinases (Homo sapiens, UniProt O15530); details: PDPK1; screened at 3000 nM
T17 construct: purchased DiscoverX; host or cells: E. coli (BL21-derived, T7 phage display) or HEK-293
T17 sequence (O15530 whole entry): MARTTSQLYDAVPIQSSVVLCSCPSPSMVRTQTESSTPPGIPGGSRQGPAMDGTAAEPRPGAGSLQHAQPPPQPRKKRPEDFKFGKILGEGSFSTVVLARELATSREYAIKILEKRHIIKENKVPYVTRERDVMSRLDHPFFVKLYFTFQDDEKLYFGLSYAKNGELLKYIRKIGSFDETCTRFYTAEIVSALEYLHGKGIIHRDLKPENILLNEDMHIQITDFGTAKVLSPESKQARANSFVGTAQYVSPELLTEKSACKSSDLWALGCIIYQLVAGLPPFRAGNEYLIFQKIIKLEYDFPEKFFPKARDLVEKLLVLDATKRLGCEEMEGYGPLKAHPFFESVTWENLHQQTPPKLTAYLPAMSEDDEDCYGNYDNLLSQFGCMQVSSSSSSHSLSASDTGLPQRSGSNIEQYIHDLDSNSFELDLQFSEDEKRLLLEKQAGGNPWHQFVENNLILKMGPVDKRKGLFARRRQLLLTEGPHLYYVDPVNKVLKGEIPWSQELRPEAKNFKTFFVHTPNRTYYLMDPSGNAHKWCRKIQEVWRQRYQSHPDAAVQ
Protocol: as §1

[18] = target: T18, panel of ninety-seven kinases (Homo sapiens, UniProt P27448); details: MARK3; screened at 3000 nM
T18 construct: purchased DiscoverX; host or cells: E. coli (BL21-derived, T7 phage display) or HEK-293
T18 sequence (P27448 whole entry): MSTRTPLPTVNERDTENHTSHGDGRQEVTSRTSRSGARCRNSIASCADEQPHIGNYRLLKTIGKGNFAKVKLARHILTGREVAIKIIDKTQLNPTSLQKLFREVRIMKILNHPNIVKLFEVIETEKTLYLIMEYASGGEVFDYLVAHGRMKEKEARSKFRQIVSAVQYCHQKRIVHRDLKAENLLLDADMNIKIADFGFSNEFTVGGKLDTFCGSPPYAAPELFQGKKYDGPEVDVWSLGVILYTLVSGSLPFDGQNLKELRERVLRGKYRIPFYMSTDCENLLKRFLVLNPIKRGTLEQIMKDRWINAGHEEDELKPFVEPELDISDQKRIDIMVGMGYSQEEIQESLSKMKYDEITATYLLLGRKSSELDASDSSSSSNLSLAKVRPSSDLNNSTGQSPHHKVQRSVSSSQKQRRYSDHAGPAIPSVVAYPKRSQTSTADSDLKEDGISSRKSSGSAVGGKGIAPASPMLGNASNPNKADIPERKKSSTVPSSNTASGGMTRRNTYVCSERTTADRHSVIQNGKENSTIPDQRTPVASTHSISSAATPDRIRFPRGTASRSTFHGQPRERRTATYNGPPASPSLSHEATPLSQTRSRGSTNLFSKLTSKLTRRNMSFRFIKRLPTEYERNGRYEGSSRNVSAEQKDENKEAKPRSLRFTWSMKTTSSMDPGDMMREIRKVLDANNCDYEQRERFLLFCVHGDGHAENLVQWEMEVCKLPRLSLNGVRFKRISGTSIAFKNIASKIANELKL
Protocol: as §1

[19] = target: T19, panel of ninety-seven kinases (Homo sapiens, UniProt P04629); details: NTRK1; screened at 3000 nM
T19 construct: purchased DiscoverX; host or cells: E. coli (BL21-derived, T7 phage display) or HEK-293
Protocol: as §1

[20] = target: T20, panel of ninety-seven kinases (Homo sapiens, UniProt P04626); details: ERBB2; screened at 3000 nM
T20 construct: purchased DiscoverX; host or cells: E. coli (BL21-derived, T7 phage display) or HEK-293
Protocol: as §1

[21] = target: T21, panel of ninety-seven kinases (Homo sapiens, UniProt P36888); details: FLT3; screened at 3000 nM
T21 construct: purchased DiscoverX; host or cells: E. coli (BL21-derived, T7 phage display) or HEK-293
T21 sequence (P36888 27-993): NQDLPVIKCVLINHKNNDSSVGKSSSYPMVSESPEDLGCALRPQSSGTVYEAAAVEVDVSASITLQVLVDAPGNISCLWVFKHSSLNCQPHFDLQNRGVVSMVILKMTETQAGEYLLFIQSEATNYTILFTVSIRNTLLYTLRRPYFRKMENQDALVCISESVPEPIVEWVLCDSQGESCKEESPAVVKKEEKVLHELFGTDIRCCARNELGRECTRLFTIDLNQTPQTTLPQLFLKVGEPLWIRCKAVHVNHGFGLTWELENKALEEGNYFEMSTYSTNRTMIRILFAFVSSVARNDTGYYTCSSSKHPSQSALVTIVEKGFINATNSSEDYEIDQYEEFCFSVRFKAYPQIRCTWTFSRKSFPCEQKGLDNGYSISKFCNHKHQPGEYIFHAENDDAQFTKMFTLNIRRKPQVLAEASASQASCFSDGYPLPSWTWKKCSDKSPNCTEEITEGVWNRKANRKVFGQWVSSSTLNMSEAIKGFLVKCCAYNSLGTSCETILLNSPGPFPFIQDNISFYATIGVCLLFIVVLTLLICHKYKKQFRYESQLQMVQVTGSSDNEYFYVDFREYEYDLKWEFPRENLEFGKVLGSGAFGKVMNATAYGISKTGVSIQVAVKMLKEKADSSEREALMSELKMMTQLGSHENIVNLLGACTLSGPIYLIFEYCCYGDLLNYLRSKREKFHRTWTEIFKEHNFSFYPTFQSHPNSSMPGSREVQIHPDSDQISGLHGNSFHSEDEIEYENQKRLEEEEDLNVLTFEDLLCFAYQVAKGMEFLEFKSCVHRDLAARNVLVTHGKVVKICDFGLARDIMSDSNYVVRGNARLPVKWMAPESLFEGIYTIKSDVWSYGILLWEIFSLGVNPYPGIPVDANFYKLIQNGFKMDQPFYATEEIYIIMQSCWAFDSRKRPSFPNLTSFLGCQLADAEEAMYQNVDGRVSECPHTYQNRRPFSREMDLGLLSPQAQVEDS
Protocol: as §1

[22] = target: T22, panel of ninety-seven kinases (Homo sapiens, UniProt P80192); details: MAP3K9; screened at 3000 nM
T22 construct: purchased DiscoverX; host or cells: E. coli (BL21-derived, T7 phage display) or HEK-293
Protocol: as §1

T1 sequence (P30530 26-894): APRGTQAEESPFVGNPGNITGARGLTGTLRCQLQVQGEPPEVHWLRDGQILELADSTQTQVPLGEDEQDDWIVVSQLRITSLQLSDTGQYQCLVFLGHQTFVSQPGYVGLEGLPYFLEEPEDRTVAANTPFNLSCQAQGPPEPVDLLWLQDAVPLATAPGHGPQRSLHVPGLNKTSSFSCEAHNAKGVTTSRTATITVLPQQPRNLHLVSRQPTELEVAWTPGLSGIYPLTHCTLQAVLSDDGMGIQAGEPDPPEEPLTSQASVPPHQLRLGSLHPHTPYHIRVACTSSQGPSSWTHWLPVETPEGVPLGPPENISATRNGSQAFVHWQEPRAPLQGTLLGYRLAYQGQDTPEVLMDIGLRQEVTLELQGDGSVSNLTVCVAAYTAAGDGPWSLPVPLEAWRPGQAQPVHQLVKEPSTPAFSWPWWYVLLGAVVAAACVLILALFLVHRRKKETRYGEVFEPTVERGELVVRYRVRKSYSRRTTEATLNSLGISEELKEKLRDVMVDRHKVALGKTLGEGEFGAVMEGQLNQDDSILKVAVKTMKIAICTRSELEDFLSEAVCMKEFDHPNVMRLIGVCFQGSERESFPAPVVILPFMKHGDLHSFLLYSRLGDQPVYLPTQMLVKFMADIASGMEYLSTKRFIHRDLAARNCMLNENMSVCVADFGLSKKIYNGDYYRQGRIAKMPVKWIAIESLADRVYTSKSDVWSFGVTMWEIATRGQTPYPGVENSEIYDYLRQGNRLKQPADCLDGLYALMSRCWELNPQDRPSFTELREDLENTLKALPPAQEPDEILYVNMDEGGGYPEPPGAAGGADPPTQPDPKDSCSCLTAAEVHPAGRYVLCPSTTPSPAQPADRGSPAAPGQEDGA

CN(C)CCNC(=O)c1ccc(-c2ccc(-c3ccc(Cl)cc3)n2-c2ccccc2C(F)(F)F)cc1 (single isomer, unassigned) [Atropisomer A-2]
% Ctrl @ 3 μM [1]: 93 % Ctrl | % Ctrl @ 3 μM [2]: 100 % Ctrl | % Ctrl @ 3 μM [3]: 100 % Ctrl | % Ctrl @ 3 μM [4]: 100 % Ctrl | % Ctrl @ 3 μM [5]: 99 % Ctrl | % Ctrl @ 3 μM [6]: 97 % Ctrl | % Ctrl @ 3 μM [7]: 100 % Ctrl | % Ctrl @ 3 μM [8]: 63 % Ctrl | % Ctrl @ 3 μM [9]: 98 % Ctrl | % Ctrl @ 3 μM [10]: 100 % Ctrl | % Ctrl @ 3 μM [11]: 93 % Ctrl | % Ctrl @ 3 μM [12]: 96 % Ctrl | % Ctrl @ 3 μM [13]: 88 % Ctrl | % Ctrl @ 3 μM [14]: 100 % Ctrl | % Ctrl @ 3 μM [15]: 80 % Ctrl | % Ctrl @ 3 μM [16]: 100 % Ctrl | % Ctrl @ 3 μM [17]: 96 % Ctrl | % Ctrl @ 3 μM [18]: 100 % Ctrl | % Ctrl @ 3 μM [19]: 100 % Ctrl | % Ctrl @ 3 μM [20]: 66 % Ctrl | % Ctrl @ 3 μM [21]: 100 % Ctrl | % Ctrl @ 3 μM [22]: 96 % Ctrl
